Measurements taken from PMC7587356, “High-Throughput Screening for Inhibitors of the SARS-CoV-2 Protease Using a FRET-Biosensor” (Molecules, 2020).
Structures can show the parent of a compound that is named as a salt. Where two headings read alike, the source gives them in different places.

Molecular target: SARS-CoV-2 3CLpro (Severe acute respiratory syndrome coronavirus 2, UniProt P0DTD1)
Experiment: biochemical
Type: biochemical
Design: Replicate_1 / Replicate_2 / mean / mean (LOPAC_screen_w_protease): unit not given here
Settings: for inhibition at 5 µM: 4 h
[1] = sheet LOPAC_screen_w_protease, LOPAC1280 primary screen at 5 µM, with protease, mean of the two replicates, read-out: mean
[2] = sheet LOPAC_screen_w_protease, LOPAC1280 primary screen at 5 µM, with protease, replicate 1, read-out: Replicate_1
[3] = sheet LOPAC_screen_w_protease, LOPAC1280 primary screen at 5 µM, with protease, replicate 2, read-out: Replicate_2
[4] = sheet LOPAC_screen_w_protease, primary screen of LOPAC1280 at 5 µM with protease, mean of the two replicates, read-out: mean
[5] = sheet LOPAC_screen_w_protease, primary screen of LOPAC1280 at 5 µM with protease, replicate 1, read-out: Replicate_1
[6] = sheet LOPAC_screen_w_protease, primary screen of LOPAC1280 at 5 µM with protease, replicate 2, read-out: Replicate_2
[7] = sheet LOPAC_screen_w_protease, primary screen at 5 µM, mean of two replicates
[8] = sheet LOPAC_screen_w_protease, primary screen at 5 µM, replicate 1
[9] = sheet LOPAC_screen_w_protease, primary screen at 5 µM, replicate 2
[10] = LOPAC1280 primary screen with protease, 5 µM compound, mean of the two replicates
[11] = LOPAC1280 primary screen with protease, 5 µM compound, replicate 1
[12] = LOPAC1280 primary screen with protease, 5 µM compound, replicate 2
[13] = LOPAC1280 primary screen with protease, 5 µM compound, mean of two replicates
[14] = sheet LOPAC_screen_w_protease, LOPAC1280 primary screen at 5 µM, with protease, mean of the two replicates
[15] = sheet LOPAC_screen_w_protease, LOPAC1280 primary screen at 5 µM, with protease, replicate 1
[16] = sheet LOPAC_screen_w_protease, LOPAC1280 primary screen at 5 µM, with protease, replicate 2
[17] = sheet LOPAC_screen_w_protease, primary screen with protease, mean of two replicates
[18] = sheet LOPAC_screen_w_protease, primary screen with protease, replicate 1
[19] = sheet LOPAC_screen_w_protease, primary screen with protease, replicate 2
[20] = sheet LOPAC_screen_w_protease, LOPAC1280 primary screen with protease, 5 µM compound, mean of the two replicates
[21] = sheet LOPAC_screen_w_protease, LOPAC1280 primary screen with protease, 5 µM compound, replicate 1
[22] = sheet LOPAC_screen_w_protease, LOPAC1280 primary screen with protease, 5 µM compound, replicate 2

Work on CN1C(=O)CCS(=O)(=O)C1c1ccc(Cl)cc1 (stereo not drawn) [Chlormezanone] yielded an inhibition at 5 µM [1] of 0.463%, an inhibition at 5 µM [2] of 2.15% and an inhibition at 5 µM [3] of -1.22%.
Work on CCOC(=O)Nc1ccc(NCc2ccc(F)cc2)nc1N [Flupirtine maleate] yielded an inhibition at 5 µM (sheet LOPAC_screen_w_protease, primary screen at 5 µM, mean of two replicates, read-out: mean (LOPAC screen with protease)) of 10.9%, an inhibition at 5 µM (sheet LOPAC_screen_w_protease, primary screen at 5 µM, replicate 1, read-out: Replicate_1 (LOPAC screen with protease)) of 11.1% and an inhibition at 5 µM (sheet LOPAC_screen_w_protease, primary screen at 5 µM, replicate 2, read-out: Replicate_2 (LOPAC screen with protease)) of 10.6%.
Work on C=CCN1CC[C@]23c4c5ccc(O)c4O[C@H]2C(=O)CC[C@@]3(O)[C@H]1C5 [Naloxone hydrochloride] yielded an inhibition at 5 µM [4] of 4%, an inhibition at 5 µM [5] of 3.91% and an inhibition at 5 µM [6] of 4.09%.
For NC(=O)CI [Iodoacetamide], the “mean (LOPAC screen with protease)” value [7] was 17.6073, the “Replicate_1 (LOPAC screen with protease)” value [8] was 16.5057 and the “Replicate_2 (LOPAC screen with protease)” value [9] was 18.7088.
CCCCCCCCCCCCCC(=O)O[C@@H]1[C@@H](C)[C@@]2(O)[C@@H](C=C(CO)C[C@]3(O)C(=O)C(C)=C[C@@H]23)[C@@H]2C(C)(C)[C@]12OC(C)=O [Phorbol 12-myristate 13-acetate] gave an inhibition at 5 µM (read-out: Replicate_1) of 1.97%, an inhibition at 5 µM (read-out: Replicate_2) of -0.596% and an inhibition at 5 µM (read-out: mean) of 0.686%.
For Nc1c(S(=O)(=O)O)cc(Nc2ccc(Nc3nc(Cl)nc(Nc4cccc(S(=O)(=O)O)c4)n3)c(S(=O)(=O)O)c2)c2c1C(=O)c1ccccc1C2=O [Reactive Blue 2], the inhibition at 5 µM [1] was 0.827%, the inhibition at 5 µM [2] was -0.139% and the inhibition at 5 µM [3] was 1.79%.
CCNC(=O)N1CCN(CCCC(c2ccc(F)cc2)c2ccc(F)cc2)CC1 [Amperozide hydrochloride] gave an inhibition at 5 µM (sheet LOPAC_screen_w_protease, primary screen with protease, 5 µM, mean of two replicates, read-out: mean) of 0.1%, an inhibition at 5 µM (sheet LOPAC_screen_w_protease, primary screen with protease, 5 µM, replicate 1, read-out: Replicate_1) of 0.58% and an inhibition at 5 µM (sheet LOPAC_screen_w_protease, primary screen with protease, 5 µM, replicate 2, read-out: Replicate_2) of -0.38%.
In the case of Cl.NC1C=CC=C(C(=O)O)C1 (stereo not drawn) [Gabaculine hydrochloride], the “mean (LOPAC_screen_w_protease)” value [10] is reported as 2.074, the “Replicate_1 (LOPAC_screen_w_protease)” value [11] is reported as 1.548 and the “Replicate_2 (LOPAC_screen_w_protease)” value [12] is reported as 2.6.
For NCCNC(=O)Cc1ccc(NC(=O)Cc2ccc(Nc3ncnc4c3ncn4[C@@H]3O[C@H](CO)[C@@H](O)[C@H]3O)cc2)cc1 [Adenosine amine congener], the mean (sheet LOPAC_screen_w_protease, primary screen with protease, compound at 5 µM, mean of two replicates) was 2.686, the Replicate_1 (sheet LOPAC_screen_w_protease, primary screen with protease, compound at 5 µM, replicate 1) was 3.268 and the Replicate_2 (sheet LOPAC_screen_w_protease, primary screen with protease, compound at 5 µM, replicate 2) was 2.1037.
For CCSC(=N)Nc1ccc(C(F)(F)F)cc1.Cl [TFPI hydrochloride], the “mean (LOPAC_screen_w_protease)” value [13] was 1.706, the “Replicate_1 (LOPAC_screen_w_protease)” value [11] was 2.498 and the “Replicate_2 (LOPAC_screen_w_protease)” value [12] was 0.9137.
With CCN(CC)CC.Nc1ncnc2c1ncn2C1OC2COP(O)(=S)O[C@@H]2[C@@H]1O (stereo partly drawn) [Rp-cAMPS triethylamine] the Replicate_1 was 2.931, the Replicate_2 was 3.042 and the mean was 2.9867.
CCCc1c(OCCCOc2ccc(OCC(=O)O)cc2)ccc(C(C)=O)c1O [L-165,041] was tested, and the “mean (LOPAC screen with protease)” value [7] was 13.6599, the “Replicate_1 (LOPAC screen with protease)” value [8] was 14.4944 and the “Replicate_2 (LOPAC screen with protease)” value [9] was 12.8255.
Work on Nc1nccc2c1ncn2[C@@H]1O[C@H](CO)[C@@H](O)[C@H]1O [3-deazaadenosine] yielded a mean (sheet LOPAC_screen_w_protease, primary screen of LOPAC1280 at 5 µM with protease, mean of the two replicates) of 3.161, a Replicate_1 (sheet LOPAC_screen_w_protease, primary screen of LOPAC1280 at 5 µM with protease, replicate 1) of 4.639 and a Replicate_2 (sheet LOPAC_screen_w_protease, primary screen of LOPAC1280 at 5 µM with protease, replicate 2) of 1.683.
Work on O=C(O)C1CCCNC1 (racemic) [(±)-Nipecotic acid] yielded a mean [14] of 0.4335, a Replicate_1 [15] of 0.981 and a Replicate_2 [16] of -0.114.
With C[N+]1(C)CCN(c2ccccc2)CC1.[I-] the “mean (LOPAC screen with protease)” value [7] was 7.007, the “Replicate_1 (LOPAC screen with protease)” value [8] was 5.351 and the “Replicate_2 (LOPAC screen with protease)” value [9] was 8.6627.
With Br.CCCN(CCC)C1CCc2cccc(O)c2C1 (racemic) [(±)-8-Hydroxy-DPAT hydrobromide] the “mean (LOPAC_screen_w_protease)” value [10] was 1.82, the “Replicate_1 (LOPAC_screen_w_protease)” value [11] was 3.36 and the “Replicate_2 (LOPAC_screen_w_protease)” value [12] was 0.2793.
CC1=NN=C(c2ccc(N)cc2)c2cc3c(cc2C1)OCO3.Cl [GYKI 52466 hydrochloride] gave a mean [14] of 0.5948, a Replicate_1 [15] of 3.75 and a Replicate_2 [16] of -2.56.
CCCCN1CCC(COC(=O)c2cc(Cl)c(N)c3c2OCCO3)CC1.Cl [SB 204070 hydrochloride] was tested, and the mean [17] was 2.545, the Replicate_1 [18] was 1.507 and the Replicate_2 [19] was 3.5833.
With N#CCCN.N#CCCN.O=C(O)/C=C/C(=O)O [3-Aminopropionitrile fumarate] the mean (sheet LOPAC_screen_w_protease, LOPAC1280 at 5 µM, mean of two replicates) was 0.9446, the Replicate_1 (sheet LOPAC_screen_w_protease, LOPAC1280 at 5 µM, replicate 1) was 1.551 and the Replicate_2 (sheet LOPAC_screen_w_protease, LOPAC1280 at 5 µM, replicate 2) was 0.3384.
Cl.N[C@@H](CCl)C(=O)O [beta-Chloro-L-alanine hydrochloride] was tested, and the mean [17] was 2.368, the Replicate_1 [18] was 2.376 and the Replicate_2 [19] was 2.361.
With S=C(Nc1ccccc1)Nc1nccs1 [1-Phenyl-3-(2-thiazolyl)-2-thiourea] the “mean (LOPAC screen with protease)” value [7] was 7.407, the “Replicate_1 (LOPAC screen with protease)” value [8] was 6.341 and the “Replicate_2 (LOPAC screen with protease)” value [9] was 8.4724.
With Cc1cc(C)c(NC(=O)C[C@H](CC(=O)O)c2cccc3ccccc23)c(C(=O)N2CCC3(CCCC3)CC2)c1 [CR 2945] the inhibition at 5 µM (LOPAC1280 primary screen with protease, 5 µM compound, replicate 1, read-out: Replicate_1 (LOPAC_screen_w_protease)) was 3.19%, the inhibition at 5 µM (LOPAC1280 primary screen with protease, 5 µM compound, replicate 2, read-out: Replicate_2 (LOPAC_screen_w_protease)) was 0.22% and the “mean (LOPAC_screen_w_protease)” value [13] was 1.703.
C[C@]12C=CC(=O)C=C1CC[C@@H]1C2=CC[C@]2(C)[C@@H](C(=O)CN3CCN(c4cc(N5CCCC5)nc(N5CCCC5)n4)CC3)CC[C@@H]12.O=C(O)/C=C\C(=O)O [U-74389G maleate] showed a mean (sheet LOPAC_screen_w_protease, primary screen with protease, 5 µM, mean of two replicates) of -0.1973, a Replicate_1 (sheet LOPAC_screen_w_protease, primary screen with protease, 5 µM, replicate 1) of -0.4551 and a Replicate_2 (sheet LOPAC_screen_w_protease, primary screen with protease, 5 µM, replicate 2) of 0.0606.
For N[C@@H](Cc1ccc(O)c(I)c1)C(=O)O [3-Iodo-L-tyrosine], the “mean (LOPAC_screen_w_protease)” value [10] was 1.849, the “Replicate_1 (LOPAC_screen_w_protease)” value [11] was 1.662 and the “Replicate_2 (LOPAC_screen_w_protease)” value [12] was 2.037.
Molecule COc1cccc2c1[C@@H]1CN(CCCCn3c(=O)[nH]c4c(sc5ncc(-c6ccccc6)nc54)c3=O)C[C@@H]1CO2 [Fiduxosin hydrochloride] has an inhibition at 5 µM [4] of 3.27%, an inhibition at 5 µM [5] of 3.54% and an inhibition at 5 µM [6] of 3.01%.
Molecule CC(C)COCC(CN(Cc1ccccc1)c1ccccc1)N1CCCC1 (stereo not drawn) [Bepridil hydrochloride] has an inhibition at 5 µM (read-out: Replicate_1 (LOPAC screen with protease)) of 8.81%, an inhibition at 5 µM (read-out: Replicate_2 (LOPAC screen with protease)) of 7.08% and an inhibition at 5 µM (read-out: mean (LOPAC screen with protease)) of 7.94%.
C[C@]12CC[C@@H](O)C[C@@H]1CC[C@@H]1[C@@H]2CC[C@]2(C)[C@@H](C(=O)CO)CC[C@@H]12 showed a mean [20] of 5.219, a Replicate_1 [21] of 2.641 and a Replicate_2 [22] of 7.796.
Molecule C/C=C(/C)C(=O)O[C@H]1C(C)=C2[C@H]([C@@H]1OC(=O)CCCCCCC)[C@@](C)(OC(C)=O)C[C@H](OC(=O)CCC)[C@@]1(O)[C@H]2OC(=O)[C@@]1(C)O [Thapsigargin] has an inhibition at 5 µM [1] of 0.567%, an inhibition at 5 µM [2] of 2.46% and an inhibition at 5 µM [3] of -1.32%.
In the case of CN1C2CCC1CC(OC(c1ccccc1)c1ccc(Cl)cc1)C2.Cl (stereo not drawn), the “Replicate_1 (LOPAC_screen_w_protease)” value is reported as 2.149, the “Replicate_2 (LOPAC_screen_w_protease)” value is reported as 0.9226 and the “mean (LOPAC_screen_w_protease)” value is reported as 1.536.
NC(N)=NCc1cccc(I)c1.NC(N)=NCc1cccc(I)c1.O=S(=O)(O)O [m-Iodobenzylguanidine hemisulfate] showed a mean [17] of 2.496, a Replicate_1 [18] of 1.063 and a Replicate_2 [19] of 3.929.
With CN(C)CCCCSC(=N)N.Cl.Cl [SKF 91488 dihydrochloride] the “mean (LOPAC screen with protease)” value [7] was 12.1431, the “Replicate_1 (LOPAC screen with protease)” value [8] was 13.4504 and the “Replicate_2 (LOPAC screen with protease)” value [9] was 10.8358.
In the case of CCN(CCCl)Cc1ccccc1Br.Cl [DSP-4 hydrochloride], the mean [20] is reported as 6.32, the Replicate_1 [21] is reported as 6.498 and the Replicate_2 [22] is reported as 6.142.
O=C(O)[C@@H]1[C@H](C(=O)O)[C@H]2CC[C@@H]1O2 [Endothall] showed an inhibition at 5 µM (read-out: Replicate_1) of 3.42%, an inhibition at 5 µM (read-out: Replicate_2) of -0.805% and an inhibition at 5 µM (read-out: mean) of 1.31%.
